Results as given in ChEMBL document CHEMBL1142377, “Discovery of a novel class of 1,3-dioxane-2-carboxylic acid derivatives as subtype-selective peroxisome proliferator-activated receptor alpha (PPARalpha) agonists” (Bioorg Med Chem Lett, 2008).

Experiments:
[1] = molecular target: T1, Peroxisome proliferator-activated receptor delta (Homo sapiens, UniProt Q03181); test: Agonist activity at human PPARdelta expressed in monkey CV1 cells by transactivation assay; type: functional, cell-based, CV-1
T1 sequence (Q03181 whole entry): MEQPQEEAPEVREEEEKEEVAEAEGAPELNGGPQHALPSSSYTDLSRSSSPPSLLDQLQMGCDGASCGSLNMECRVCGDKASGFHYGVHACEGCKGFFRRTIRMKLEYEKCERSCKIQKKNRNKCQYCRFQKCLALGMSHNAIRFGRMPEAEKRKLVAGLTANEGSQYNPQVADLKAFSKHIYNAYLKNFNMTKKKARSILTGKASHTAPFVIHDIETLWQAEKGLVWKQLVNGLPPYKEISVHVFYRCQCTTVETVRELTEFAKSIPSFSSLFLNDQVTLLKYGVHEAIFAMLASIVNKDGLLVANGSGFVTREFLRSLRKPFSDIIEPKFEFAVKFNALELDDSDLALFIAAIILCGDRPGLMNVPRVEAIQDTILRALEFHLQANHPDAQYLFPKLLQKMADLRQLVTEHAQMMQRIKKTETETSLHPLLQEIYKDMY

Mus musculus [2] = test: Hypolipidemic effect on diabetic KKAy mouse model assessed as reduction of plasma triglyceride level at 1 mg/kg, po QD for 4 days; type: functional; set-up: scale not given: the % may be the effect or the level left
[3] = molecular target: T2, Peroxisome proliferator-activated receptor gamma (Homo sapiens, UniProt P37231)
T2 sequence (P37231 whole entry): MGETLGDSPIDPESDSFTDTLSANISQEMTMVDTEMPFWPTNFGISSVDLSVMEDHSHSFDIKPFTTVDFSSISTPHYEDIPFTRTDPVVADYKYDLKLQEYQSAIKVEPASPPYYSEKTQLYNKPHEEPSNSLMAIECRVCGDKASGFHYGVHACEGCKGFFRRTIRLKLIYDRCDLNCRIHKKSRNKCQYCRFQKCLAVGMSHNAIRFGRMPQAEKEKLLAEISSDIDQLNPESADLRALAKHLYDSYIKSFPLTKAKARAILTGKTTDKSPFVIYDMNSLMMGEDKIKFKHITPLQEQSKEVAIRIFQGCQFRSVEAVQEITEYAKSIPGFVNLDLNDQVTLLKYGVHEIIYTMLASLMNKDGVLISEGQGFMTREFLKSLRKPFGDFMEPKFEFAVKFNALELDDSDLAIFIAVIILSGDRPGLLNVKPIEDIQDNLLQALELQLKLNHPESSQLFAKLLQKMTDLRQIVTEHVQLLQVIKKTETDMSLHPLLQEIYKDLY

[4] = molecular target: T3, Peroxisome proliferator-activated receptor gamma (Homo sapiens) (UniProt P37231); test: Agonist activity at human PPARgamma expressed in monkey CV1 cells at 10 uM by transactivation assay; type: functional, cell-based; settings: CV-1
T3 sequence (whole entry): T2 sequence (P37231 whole entry)

[5] = molecular target: T4, Peroxisome proliferator-activated receptor delta (Homo sapiens) (UniProt Q03181); test: Agonist activity at human PPARdelta expressed in monkey CV1 cells at 10 uM by transactivation assay; type: functional, cell-based; settings: CV-1
T4 sequence (whole entry): T1 sequence (Q03181 whole entry)

[6] = molecular target: T5, Peroxisome proliferator-activated receptor alpha (Homo sapiens, UniProt Q07869); test: Agonist activity at human PPARalpha expressed in monkey CV1 cells by transactivation assay; type: functional, cell-based, CV-1
T5 sequence (Q07869 whole entry): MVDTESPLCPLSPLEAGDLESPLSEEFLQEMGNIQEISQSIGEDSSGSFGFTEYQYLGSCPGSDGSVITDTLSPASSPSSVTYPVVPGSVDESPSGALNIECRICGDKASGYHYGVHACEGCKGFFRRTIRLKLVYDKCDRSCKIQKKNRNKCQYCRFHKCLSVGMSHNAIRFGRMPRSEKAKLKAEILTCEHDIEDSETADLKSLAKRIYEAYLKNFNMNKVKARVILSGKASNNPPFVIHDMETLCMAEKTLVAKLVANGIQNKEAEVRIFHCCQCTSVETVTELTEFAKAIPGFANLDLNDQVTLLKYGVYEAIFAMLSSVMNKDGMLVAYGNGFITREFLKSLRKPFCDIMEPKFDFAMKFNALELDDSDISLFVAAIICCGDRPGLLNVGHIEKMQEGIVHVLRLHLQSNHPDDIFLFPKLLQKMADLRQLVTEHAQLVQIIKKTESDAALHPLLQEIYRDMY

[7] = molecular target: T6, Peroxisome proliferator-activated receptor alpha (Homo sapiens) (UniProt Q07869); test: Agonist activity at human PPARalpha expressed in monkey CV1 cells at 10 uM by transactivation assay; type: functional, cell-based; settings: CV-1
T6 sequence (whole entry): T5 sequence (Q07869 whole entry)

Mus musculus [8] = test: Hypoglycemic effect on diabetic KKAy mouse model assessed as reduction of plasma glucose level at 300 mg/kg, po QD for 4 days; type: functional; set-up: scale not given: the % may be the effect or the level left
Mus musculus [9] = test: Hypolipidemic effect on diabetic KKAy mouse model assessed as reduction of VLDL cholesterol level at 300 mg/kg, po QD for 4 days; type: functional; set-up: scale not given: the % may be the effect or the level left
Mus musculus [10] = test: Hypolipidemic effect on diabetic KKAy mouse model assessed as increase in HDL cholesterol level at 300 mg/kg, po QD for 4 days; type: functional
Mus musculus [11] = test: Hypolipidemic effect on diabetic KKAy mouse model assessed as reduction of plasma triglyceride level at 300 mg/kg, po QD for 4 days; type: functional; set-up: scale not given: the % may be the effect or the level left
Mus musculus [12] = test: Hypolipidemic effect on diabetic KKAy mouse model assessed as reduction of VLDL cholesterol level at 1 mg/kg, po QD for 4 days; type: functional; set-up: scale not given: the % may be the effect or the level left
Mus musculus [13] = test: (§1) Hypolipidemic effect on diabetic KKAy mouse model assessed as increase in HDL cholesterol level at 3 mg/kg, po QD for 4 days; type: functional
Mus musculus [14] = test: Hypoglycemic effect on diabetic KKAy mouse model assessed as reduction of plasma glucose level at 1 mg/kg, po QD for 4 days; type: functional; set-up: scale not given: the % may be the effect or the level left
Homo sapiens [15] = species: Homo sapiens; test: Selectivity of human PPARalpha over human PPARdelta
Homo sapiens [16] = species: Homo sapiens; test: Selectivity of human PPARalpha over human PPARgamma
[17] = molecular target: T7, Peroxisome proliferator-activated receptor delta (Mus musculus) (UniProt P35396); test: Agonist activity at mouse PPARdelta at 10 uM by transactivation assay; type: functional
T7 sequence (whole entry): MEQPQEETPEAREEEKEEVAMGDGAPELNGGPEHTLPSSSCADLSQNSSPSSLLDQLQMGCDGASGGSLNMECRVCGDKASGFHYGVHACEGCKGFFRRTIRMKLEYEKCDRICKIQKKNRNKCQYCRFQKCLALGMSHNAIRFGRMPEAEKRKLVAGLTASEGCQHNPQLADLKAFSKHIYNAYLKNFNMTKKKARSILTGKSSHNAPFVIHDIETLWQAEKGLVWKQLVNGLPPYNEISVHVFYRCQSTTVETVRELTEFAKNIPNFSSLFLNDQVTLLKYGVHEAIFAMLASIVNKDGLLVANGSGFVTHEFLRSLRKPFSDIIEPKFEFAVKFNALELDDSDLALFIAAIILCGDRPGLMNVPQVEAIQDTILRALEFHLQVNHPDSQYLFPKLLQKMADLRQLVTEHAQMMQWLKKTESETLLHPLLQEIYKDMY

Mus musculus [18] = test: as §1; type: functional; remark: listed apart in the source
Mus musculus [19] = test: Hypolipidemic effect on diabetic KKAy mouse model assessed as reduction of plasma triglyceride level at 3 mg/kg, po QD for 4 days; type: functional; set-up: scale not given: the % may be the effect or the level left
[20] = molecular target: T8, Peroxisome proliferator-activated receptor gamma (Mus musculus) (UniProt P37238); test: Agonist activity at mouse PPARgamma at 10 uM by transactivation assay; type: functional
T8 sequence (whole entry): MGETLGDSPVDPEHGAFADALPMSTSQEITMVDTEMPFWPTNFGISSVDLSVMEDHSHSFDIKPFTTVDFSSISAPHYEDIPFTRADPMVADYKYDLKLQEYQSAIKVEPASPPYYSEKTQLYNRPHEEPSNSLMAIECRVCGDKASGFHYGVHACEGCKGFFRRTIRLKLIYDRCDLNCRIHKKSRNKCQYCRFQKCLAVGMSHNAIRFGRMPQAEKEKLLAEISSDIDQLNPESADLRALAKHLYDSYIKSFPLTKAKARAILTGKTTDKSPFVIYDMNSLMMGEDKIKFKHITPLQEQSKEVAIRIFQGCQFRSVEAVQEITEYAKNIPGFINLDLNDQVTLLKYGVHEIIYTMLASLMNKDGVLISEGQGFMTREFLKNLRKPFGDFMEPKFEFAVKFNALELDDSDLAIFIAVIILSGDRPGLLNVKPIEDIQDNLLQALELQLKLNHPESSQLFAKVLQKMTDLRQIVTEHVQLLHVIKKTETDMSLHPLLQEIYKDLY

Mus musculus [21] = test: Hypoglycemic effect on diabetic KKAy mouse model assessed as reduction of plasma glucose level at 3 mg/kg, po QD for 4 days; type: functional; set-up: scale not given: the % may be the effect or the level left
Mus musculus [22] = test: Hypolipidemic effect on diabetic KKAy mouse model assessed as reduction of VLDL cholesterol level at 3 mg/kg, po QD for 4 days; type: functional; set-up: scale not given: the % may be the effect or the level left
[23] = molecular target: T9, Peroxisome proliferator-activated receptor alpha (Mus musculus, UniProt P23204); test: Agonist activity at mouse PPARalpha by transactivation assay; type: functional
T9 sequence (P23204 whole entry): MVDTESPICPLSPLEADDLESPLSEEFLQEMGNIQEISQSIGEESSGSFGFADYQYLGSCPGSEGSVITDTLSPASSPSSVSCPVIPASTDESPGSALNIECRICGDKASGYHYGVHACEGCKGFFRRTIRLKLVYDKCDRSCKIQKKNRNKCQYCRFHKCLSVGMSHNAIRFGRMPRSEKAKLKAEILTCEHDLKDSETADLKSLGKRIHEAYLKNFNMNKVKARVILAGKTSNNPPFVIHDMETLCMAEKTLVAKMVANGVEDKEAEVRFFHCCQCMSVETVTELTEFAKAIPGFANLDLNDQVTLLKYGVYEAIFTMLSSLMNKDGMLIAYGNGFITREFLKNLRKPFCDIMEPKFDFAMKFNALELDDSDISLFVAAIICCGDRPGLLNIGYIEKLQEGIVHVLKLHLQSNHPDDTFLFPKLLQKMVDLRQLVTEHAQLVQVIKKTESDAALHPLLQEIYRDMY

[24] = molecular target: T10, Peroxisome proliferator-activated receptor gamma (Mus musculus, UniProt P37238); test: Agonist activity at mouse PPARgamma by transactivation assay; type: functional
T10 sequence (P37238 whole entry): T8 sequence (whole entry)

With `Cc1oc(-c2ccccc2)nc1CCCCCCOC(C)(C)C(=O)O` the EC50 [1] was 30 µM, the Activity (Mus musculus [2]) was 32% and the EC50 [3] was 0.3 µM.
Work on `Cc1oc(-c2ccccc2)nc1Cc1cccc([C@H]2CO[C@@](C)(C(=O)O)OC2)c1` yielded an Activity [4] of 12%, an Activity [5] of 7% and an EC50 [6] of 3 µM.
`Cc1oc(-c2ccccc2)nc1CCCC[C@H]1CO[C@@H](C(=O)O)OC1` showed an Activity [4] of 0%, an Activity [7] of 8% and an Activity [5] of 3%.
Work on `CC(C)OC(=O)C(C)(C)Oc1ccc(C(=O)c2ccc(Cl)cc2)cc1` [FENOFIBRATE] yielded an Activity (Mus musculus [8]) of 25%, an Activity (Mus musculus [9]) of 31% and an Activity (Mus musculus [10]) of 17%. For the same molecule, the Activity (Mus musculus [11]) was 40%.
Work on `Cc1oc(-c2ccccc2)nc1Cc1ccc([C@H]2CO[C@@](C)(C(=O)O)OC2)cc1` yielded an Activity [4] of 10%, an Activity [7] of 5% and an Activity [5] of 0%.
With `Cc1oc(-c2ccccc2)nc1CCCC[C@H]1CO[C@@](C)(C(=O)O)OC1` the Activity (Mus musculus [12]) was 29%, the Activity (Mus musculus [13]) was 55% and the Activity (Mus musculus [14]) was 12%. It also gave a Ratio EC50 (Homo sapiens [15]) of over 300, a Ratio EC50 (Homo sapiens [16]) of over 300 and an Activity [17] of 6%. The Activity (Mus musculus [18]) was 36%, the Activity (Mus musculus [2]) was 46% and the Activity (Mus musculus [19]) was 56%. For the same molecule, the Activity [5] was 0%, the Activity [20] was 21% and the Activity (Mus musculus [21]) was 13%. For the same molecule, the Activity (Mus musculus [22]) was 49%.
Molecule `Cc1oc(-c2ccccc2)nc1CCCCC[C@H]1CO[C@@](C)(C(=O)O)OC1` has an Activity [5] of 34%, an EC50 [6] of 0.1 µM and an EC50 [3] of 0.3 µM.
`Cc1oc(-c2ccccc2)nc1Cc1ccc(C[C@H]2CO[C@@](C)(C(=O)O)OC2)cc1` showed an Activity [5] of 38%, an EC50 [6] of 3 µM and an EC50 [3] of 3 µM.
With `Cc1oc(-c2ccccc2)nc1CCC[C@H]1CO[C@@](C)(C(=O)O)OC1` the Activity [4] was 2%, the Activity [7] was 8% and the Activity [5] was 12%.
For `Cc1oc(-c2ccccc2)nc1CCCC[C@H]1CO[C@](C)(C(=O)O)OC1`, the Activity [5] was 10%, the EC50 [6] was 3 µM and the EC50 [3] was 30 µM.
`Cc1oc(-c2ccccc2)nc1CCCC[C@H]1CO[C@@](CC(C)C)(C(=O)O)OC1` was tested, and the Activity [5] was 6%, the EC50 [6] was 0.03 µM and the EC50 [3] was 10 µM.
For `CC(C)(Oc1ccc(CCNC(=O)c2ccc(Cl)cc2)cc1)C(=O)O` [BEZAFIBRATE], the EC50 [3] was 100 µM.
`Cc1oc(-c2ccccc2)nc1Cc1cccc(C[C@H]2CO[C@@](C)(C(=O)O)OC2)c1` showed an Activity [5] of 28%, an EC50 [6] of 3 µM and an EC50 [3] of 1 µM.
`CC[C@]1(C(=O)O)OC[C@@H](CCCCc2nc(-c3ccccc3)oc2C)CO1` was tested, and the Activity (Mus musculus [13]) was 5%, the Activity [17] was 7% and the EC50 [23] was 0.1 µM. For the same molecule, the Activity (Mus musculus [19]) was 52%, the EC50 [24] was 10 µM and the Activity [5] was 19%. The EC50 [6] was 0.03 µM, the EC50 [3] was 10 µM and the Activity (Mus musculus [21]) was 18%. It also gave an Activity (Mus musculus [22]) of 26%.
